Laboratory results taken from US9546129B2, “DTPA prodrugs, compositions thereof, and methods of using the same” (priority 2012, dated 2017).
Values joined by “and” are separate entries in the source; they are usually repeats but may differ in a detail not shown here. Identical values can stand only once.

Experiments:
[1] = system: ^241Am contaminated dogs (nose-only inhalation); test: Efficacy study in dogs, preliminary ^241Am recovery in urine and liver; assay type: in vivo, dog; conditions: for Total Recovered Activity, Liver, Treatment Mean / Total Recovered Activity, Urine, Treatment Mean: dogs; for Total Recovered Activity, Liver / Total Recovered Activity, Urine: individual animals
Description: Dogs were administered ^241Am (target of 3 μCi/animal) by nose-only inhalation on Day 0. […] Group 1 was a control and was used for determining the unperturbed biokinetics. Fourteen (14) days post C2E2 administration, the animals were sedated and euthanized. Preliminary urinary excretion and liver retention data were obtained (Table 8).

^241Am contaminated rats = test: C2E2 single dose ^241Am decorporation in rats (IM contamination); assay type: in vivo, Sprague Dawley rat; conditions: for Cage Wash ^241Am / Feces ^241Am / Liver burden / Total Decorporation / Urine ^241Am: single dose 24 h after IM ^241Am, 7 days
Description: This study was to assess the efficacy of a single oral gavage dose of C2E2 in ^241Am contaminated rats. A 200 μL aliquot was withdrawn from a stock solution of ^241Am nitrate (0.1 mCi in 5 mL 1 M HNO3), evaporated to dryness, dissolved in concentrated HNO3 (15 M, 5 mL) then evaporated to dryness and dissolved in dilute HNO3 (0.1 M, 8 mL) to form the injection solution. Groups of 4 female Sprague-Dawley rats were contaminated with 250 nCi of ^241Am nitrate by IM injection ([…]) then were administered single doses of C2E2 by gavage at 200, 600, or 1000 mg/kg under ad lib feeding conditions utilizing a 10% w/w solution in sterile water (dose volumes were 2, 6, and 10 mL/kg, for the 200, 600, and 1000 mg/kg doses, respectively). For the fasted component of the study, the animals were fasted 24 hours before treatment then for 2 hours post drug administration. Control groups with ad lib access to food and water were either untreated or administered an IV dose of the calcium salt of DTPA (Ca-DTPA) at 14 mg/kg (target dose volume of 0.7 mL/kg and concentration of 20 mg/mL). Treatment was administered 1 day after contamination. All animals were euthanized 7 days after contamination and the following tissues were collected: liver, both kidneys, both femurs as well as the ipsilateral and the contralateral hind leg muscle tissue and the pelt from the injection site. Urine and feces were collected from the time of contamination through euthanasia. Cage washings were also collected at the end of the study and considered part of total urine collection. Two aliquots (100 μL) of the injection solution were removed and ^241Am gamma activity was determined using radiomatic detection. The average of these standards is the injected dose used for all animals. All tissues and samples were counted in a similar manner. Americium content was expressed as a percentage of the injected dose. Overall recovery of radioactivity across all groups in this study was approximately 90%. […] The primary route by which both DTPA and C2E2 enhanced elimination of ^241Am occurred was by urinary clearance. […] Fecal clearance of ^241Am was not altered by feeding status, an observation that is consistent with the similar liver burden between the two groups at the end of the study. […] As with DTPA, enhanced decorporation by C2E2 occurred through enhanced urinary clearance.
Male and female Sprague Dawley rats (n=4/gender/dose) were administered single oral doses of diethylenetriaminepentaacetic acid diethyl ester (C2E2) by gavage 24 hours after intramuscular contamination with ^241Am(NO3)3 (250 nCi) under ad libitum and fasted conditions. Animals received single oral nominal doses of 200, 600, or 1000 mg/kg C2E2. Untreated animals and animals treated with an intravenous dose of Ca-DTPA ([…]) 24 hours after contamination served as controls; only ad libitum conditions were used for control animals. Total radionuclide decorporation and radionuclide tissue burden were evaluated seven days after contamination.
Male and female Sprague Dawley rats were contaminated with ^241Am(NO3)3 (0.25 μCi) by intramuscular injection (0.1 mL, 0.1 M HNO3) into the right hind leg, under isoflurane anesthesia. Immediately after injection, body weights were recorded (Day 0 weight) and animals were placed in individual metabolic cages.
Approximately eight hours after contamination—and 16 hours before test article administration—rats assigned to the Fasted groups had access to food restricted by removing the food chamber from their metabolic cages and collecting all loose chow from their housing chambers. Food chambers were replaced 1 hour after oral gavage treatment, restoring access to food. At all other times all animals had ad libitum access to food.
Male and female Sprague-Dawley rats assigned to test groups each received a single oral gavage dose of 0, 200, 600, or 1000 mg/kg of C2E2 utilizing a 10% w/w solution in water 24 hours after contamination. […]

[2] = C2E2 100 mg/kg oral, female dogs
[3] = C2E2 100 mg/kg oral, female dogs, 100 mg/kg
[4] = C2E2 100 mg/kg oral, male dogs, 100 mg/kg
[5] = C2E2 300 mg/kg oral, female dogs
[6] = C2E2 300 mg/kg oral, female dogs, 300 mg/kg
[7] = C2E2 300 mg/kg oral, male dogs, 300 mg/kg
[8] = C2E2 500 mg/kg oral, female dogs
[9] = C2E2 500 mg/kg oral, female dogs, 500 mg/kg
[10] = C2E2 500 mg/kg oral, male dogs, 500 mg/kg
[11] = C2E2 200 mg/kg gavage, ad lib, female rats
[12] = C2E2 200 mg/kg gavage, fasted, female rats
[13] = C2E2 600 mg/kg gavage, ad lib, female rats
[14] = C2E2 600 mg/kg gavage, fasted, female rats
[15] = C2E2 1000 mg/kg gavage, ad lib, female rats
[16] = C2E2 1000 mg/kg gavage, fasted, female rats

CCOC(=O)CN(CCN(CCN(CC(=O)O)CC(=O)OCC)CC(=O)O)CC(=O)O [C2E2, 6,9-bis(carboxymethyl)-3-(2-ethoxy-2-oxoethyl)-11-oxo-12-oxa-3,6,9-triazatetradecan-1-oic acid]
Total Recovered Activity, Liver, Treatment Mean ([1]; C2E2 100 mg/kg oral): 168.91 nCi
Total Recovered Activity, Urine, Treatment Mean ([1]; C2E2 100 mg/kg oral): 168.70 nCi
Total Recovered Activity, Liver, Gender Mean [1, 2]: 157.92 nCi
Total Recovered Activity, Urine, Gender Mean [1, 2]: 168.30 nCi
Total Recovered Activity, Liver [1, 3]: 186.4 nCi and 129.4 nCi
Total Recovered Activity, Urine [1, 3]: 193.85 nCi and 142.75 nCi
Total Recovered Activity, Liver, Gender Mean ([1]; C2E2 100 mg/kg oral, male dogs): 179.89 nCi
Total Recovered Activity, Urine, Gender Mean ([1]; C2E2 100 mg/kg oral, male dogs): 169.10 nCi
Total Recovered Activity, Liver [1, 4]: 213.3 nCi and 146.5 nCi
Total Recovered Activity, Urine [1, 4]: 187.57 nCi and 150.63 nCi
Total Recovered Activity, Liver, Treatment Mean ([1]; C2E2 300 mg/kg oral): 132.28 nCi
Total Recovered Activity, Urine, Treatment Mean ([1]; C2E2 300 mg/kg oral): 169.50 nCi
Total Recovered Activity, Liver, Gender Mean [1, 5]: 144.49 nCi
Total Recovered Activity, Urine, Gender Mean [1, 5]: 181.71 nCi
Total Recovered Activity, Liver [1, 6]: 87.6 nCi and 201.4 nCi
Total Recovered Activity, Urine [1, 6]: 121.32 nCi and 242.10 nCi
Total Recovered Activity, Liver, Gender Mean ([1]; C2E2 300 mg/kg oral, male dogs): 120.06 nCi
Total Recovered Activity, Urine, Gender Mean ([1]; C2E2 300 mg/kg oral, male dogs): 157.29 nCi
Total Recovered Activity, Liver [1, 7]: 109.2 nCi and 130.9 nCi
Total Recovered Activity, Urine [1, 7]: 97.24 nCi and 217.34 nCi
Total Recovered Activity, Liver, Treatment Mean ([1]; C2E2 500 mg/kg oral): 45.01 nCi
Total Recovered Activity, Urine, Treatment Mean ([1]; C2E2 500 mg/kg oral): 188.82 nCi
Total Recovered Activity, Liver, Gender Mean [1, 8]: 40.30 nCi
Total Recovered Activity, Urine, Gender Mean [1, 8]: 103.00 nCi
Total Recovered Activity, Liver [1, 9]: 34.3 nCi and 46.3 nCi
Total Recovered Activity, Urine [1, 9]: 65.39 nCi and 140.61 nCi
Total Recovered Activity, Liver, Gender Mean ([1]; C2E2 500 mg/kg oral, male dogs): 49.73 nCi
Total Recovered Activity, Urine, Gender Mean ([1]; C2E2 500 mg/kg oral, male dogs): 274.65 nCi
Total Recovered Activity, Liver [1, 10]: 49.4 nCi and 50.1 nCi
Total Recovered Activity, Urine [1, 10]: 288.78 nCi and 260.53 nCi
Cage Wash ^241Am (^241Am contaminated rats; [11]): 1.8 ± 0.5%
Feces ^241Am (^241Am contaminated rats; [11]): 5.9 ± 0.8%
Liver burden (^241Am contaminated rats; [11]): 17.7 ± 2.1 % injected
Total Decorporation (^241Am contaminated rats; [11]): 14.4 ± 0.7 % injected
Urine ^241Am (^241Am contaminated rats; [11]): 6.7 ± 1.5%
Cage Wash ^241Am (^241Am contaminated rats; [12]): 1.3 ± 0.5%
Feces ^241Am (^241Am contaminated rats; [12]): 4.7 ± 2.1%
Liver burden (^241Am contaminated rats; [12]): 20.9 ± 3.5 % injected
Total Decorporation (^241Am contaminated rats; [12]): 14.3 ± 3.2 % injected
Urine ^241Am (^241Am contaminated rats; [12]): 8.4 ± 1.3%
Cage Wash ^241Am (^241Am contaminated rats; [13]): 2.2 ± 0.8%
Feces ^241Am (^241Am contaminated rats; [13]): 7.7 ± 2.0%
Liver burden (^241Am contaminated rats; [13]): 18.6 ± 4.5 % injected
Total Decorporation (^241Am contaminated rats; [13]): 22.3 ± 3.1 % injected
Urine ^241Am (^241Am contaminated rats; [13]): 12.4 ± 1.3%
Cage Wash ^241Am (^241Am contaminated rats; [14]): 2.6 ± 0.8%
Feces ^241Am (^241Am contaminated rats; [14]): 7.3 ± 1.5%
Liver burden (^241Am contaminated rats; [14]): 18.9 ± 2.3 % injected
Total Decorporation (^241Am contaminated rats; [14]): 24.2 ± 3.3 % injected
Urine ^241Am (^241Am contaminated rats; [14]): 14.3 ± 2.9%
Cage Wash ^241Am (^241Am contaminated rats; [15]): 3.4 ± 0.3%
Feces ^241Am (^241Am contaminated rats; [15]): 6.9 ± 1.7%
Liver burden (^241Am contaminated rats; [15]): 14.5 ± 1.5 % injected
Total Decorporation (^241Am contaminated rats; [15]): 23.8 ± 3.0 % injected
Urine ^241Am (^241Am contaminated rats; [15]): 13.5 ± 1.7%
Cage Wash ^241Am (^241Am contaminated rats; [16]): 4.5 ± 0.7%
Feces ^241Am (^241Am contaminated rats; [16]): 7.1 ± 1.3%
Liver burden (^241Am contaminated rats; [16]): 13.7 ± 3.1 % injected
Total Decorporation (^241Am contaminated rats; [16]): 31.3 ± 5.5 % injected
Urine ^241Am (^241Am contaminated rats; [16]): 19.8 ± 3.9%
Efficacy compared with intravenous Ca-DTPA (^241Am contaminated rats; C2E2 1000 mg/kg single oral dose vs Ca-DTPA 13.3 mg/kg iv, no equivalence analysis): comparable, in terms of efficacy, to an intravenous dose of Ca-DTPA (13.3 mg/kg)
Effect of fasting on efficacy of the C2E2 dose (^241Am contaminated rats; daily urinary and fecal americium, male and female rats): not altered by fasting rats prior to their C2E2 treatment
Skeletal burden vs untreated controls (statistics) (^241Am contaminated rats; female rats): not significantly changed by C2E2 treatment
Dose with significantly enhanced decorporation vs untreated controls (^241Am contaminated rats; female rats, p<0.001): above 600 mg/kg
^241Am liver burden vs untreated controls (statistics) (^241Am contaminated rats; female rats, p<0.01): Only the reduction in burden following the 1000 mg/kg dose was statistically significant
Wound site retention of americium vs untreated controls (statistics) (^241Am contaminated rats; male and female rats): did not correspond with a significant change in tissue burden compared to untreated controls at any single C2E2 dose
Dose with significant reduction of estimated skeletal americium burden vs untreated controls (^241Am contaminated rats; male rats): ≥ 600 mg/kg
^241Am liver burden vs untreated controls (statistics) (^241Am contaminated rats; male rats): significantly reduced compared to untreated controls at doses of 200 mg/kg (p<0.05) and 1000 mg/kg (p<0.001)
Dose with significantly increased total decorporation vs untreated controls (^241Am contaminated rats; male rats, p<0.001): ≥ 600 mg/kg
